Data: patent US11639343B2, “Compounds targeting and degrading BCR-ABL protein and its antitumor application” (ShanghaiTech University, priority 2019, dated 2023)
Where two headings read alike, the source gives them in different places.

Assays:
U937 (BCR-ABL-) cells = assay: CCK-8 proliferation inhibition, U937 cells; assay type: cell-based, human; conditions: read-out: Proliferative inhibitory activity (IC50, nM) U937 (BCR-ABL-);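 further: Ten-point threefold dilution series, absorbance at 450 nm after 2 h with CCK-8 reagent, DMSO as negative control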
HEK293 (BCR-ABL-) cells = assay: CCK-8 proliferation inhibition, HEK293 cells; conditions: read-out: Proliferative inhibitory activity (IC50, nM) HEK293 (BCR-ABL-);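 further: Ten-point threefold dilution series starting at 10 µM, CCK-8 absorbance at 450 nm read after 2 h reagent incubation, DMSO-treated cells as negative control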
K562 (BCR-ABL+) cells = assay: CCK-8 proliferation inhibition, K562 cells; assay type: cell-based, human; conditions: read-out: Proliferative inhibitory activity (IC50, nM) K562 (BCR-ABL+);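 further: Ten-point threefold dilution series starting at 10 µM, absorbance at 450 nm after 2 h with CCK-8, DMSO as negative control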
[1] = Homo sapiens, U-937, CCK-8, 48 hours of drug treatment, highest concentration 10 μM
[2] = Homo sapiens, K562, 48 h, CCK-8, 48 hours of drug treatment
[3] = CCK-8, 48 hours of drug treatment
[4] = CCK-8, 48 hours of drug treatment, highest concentration 10 μM

Row | Structure (SMILES) | IC50 (U937 (BCR-ABL-) cells; [1]) [nM] | IC50 (HEK293 (BCR-ABL-) cells; Homo sapiens, HEK293, 48 h) [nM] | IC50 (K562 (BCR-ABL+) cells; [2]) [nM] | IC50 (K562 (BCR-ABL+) cells; [3]) [nM] | IC50 (U937 (BCR-ABL-) cells; Homo sapiens, U-937, 48 h) [nM] | IC50 (K562 (BCR-ABL+) cells; Homo sapiens, K562, 48 h) [nM] | IC50 (U937 (BCR-ABL-) cells; [4]) [nM] | IC50 (HEK293 (BCR-ABL-) cells; [4]) [nM]
1 | Cc1nc(Nc2ncc(C(=O)Nc3c(C)cccc3Cl)s2)cc(N2CCN(C(=O)CCNc3cccc4c3C(=O)N(C3CCC(=O)NC3=O)C4=O)CC2)n1 (centres unmarked) [SIAIS151074, N-(2-chloro-6-methylphenyl)-2-((6-(4-(3-((2-(2,6-dioxopiperidin-3-yl)-1,3-dioxoisoindolin-4-yl)amino)propanoyl)piperazin-1-yl)-2-methylpyrimidin-4-yl)amino)thiazole-5-carboxamide] | > 10000 | > 10000 | 6.8 | – | – | – | – | –
2 | COc1cc(Nc2c(C#N)cnc3cc(OCCCN4CCN(C(=O)CCCC(=O)Nc5cccc6c5CN(C5CCC(=O)NC5=O)C6=O)CC4)c(OC)cc23)c(Cl)cc1Cl (centres unmarked) [SIAIS164106, 5-(4-(3-((3-cyano-4-((2,4-dichloro-5-methoxyphenyl)amino)-6-methoxyquinolin-7-yl)oxy)propyl)piperazin-1-yl)-N-(2-(2,6-dioxopiperidin-3-yl)-1-oxoisoindolin-4-yl)-5-oxopentanamide] | > 10000 | > 10000 | 438 | – | – | – | – | –
3 | Cc1nc(Nc2ncc(C(=O)Nc3c(C)cccc3Cl)s2)cc(N2CCN(C(=O)CCCCCCCCCCCCCCC(=O)N[C@H](C(=O)N3C[C@H](O)C[C@H]3C(=O)NCc3ccc(-c4scnc4C)cc3)C(C)(C)C)CC2)n1 [SIAIS164194, N-(2-chloro-6-methylphenyl)-2-((6-(4-(16-(((S)-1-((2S,4R)-4-hydroxy-2-((4-(4-methylthiazol-5-yl)benzyl)carbamoyl)pyrrolidin-1-yl)-3,3-dimethyl-1-oxobutan-2-yl)amino)-16-oxohexadecanoyl)piperazin-1-yl)-2-methylpyrimidin-4-yl)amino)thiazole-5-carboxamide] | > 10000 | > 10000 | 32.3 | – | – | – | – | –
4 | Cc1nc(Nc2ncc(C(=O)Nc3c(C)cccc3Cl)s2)cc(N2CCN(C(=O)CCCc3cn(CCCC(=O)N[C@H](C(=O)N4C[C@H](O)C[C@H]4C(=O)NCc4ccc(-c5scnc5C)cc4)C(C)(C)C)nn3)CC2)n1 [SIAIS164134, N-(2-chloro-6-methylphenyl)-2-((6-(4-(4-(1-(4-(((S)-1-((2S,4R)-4-hydroxy-2-((4-(4-methylthiazol-5-yl)benzyl)carbamoyl)pyrrolidin-1-yl)-3,3-dimethyl-1-oxobutan-2-yl)amino)-4-oxobutyl)-1H-1,2,3-triazol-4-yl)butanoyl)piperazin-1-yl)-2-methylpyrimidin-4-yl)amino)thiazole-5-carboxamide] | > 10000 | > 10000 | 12 | – | – | – | – | –
5 | Cc1nc(Nc2ncc(C(=O)Nc3c(C)cccc3Cl)s2)cc(N2CCN(C(=O)CCCCNC(=O)CCCCCCCCC(=O)N[C@H](C(=O)N3C[C@H](O)C[C@H]3C(=O)NCc3ccc(-c4scnc4C)cc3)C(C)(C)C)CC2)n1 [SIAIS184032, N1-(5-(4-(6-((5-((2-chloro-6-methylphenyl)carbamoyl)thiazol-2-yl)amino)-2-methylpyrimidin-4-yl)piperazin-1-yl)-5-oxopentyl)-N10-((S)-1-((2S,4R)-4-hydroxy-2-((4-(4-methylthiazol-5-yl)benzyl)carbamoyl)pyrrolidin-1-yl)-3,3-dimethyl-1-oxobutan-2-yl)decanediamide] | > 10000 | > 10000 | 72 | – | – | – | – | –
6 | Cc1nc(Nc2ncc(C(=O)Nc3c(C)cccc3Cl)s2)cc(N2CCN(C(=O)COCCOCC(=O)N[C@H](C(=O)N3C[C@H](O)C[C@H]3C(=O)NCc3ccc(-c4scnc4C)cc3)C(C)(C)C)CC2)n1 [SIAIS151080, N-(2-chloro-6-methylphenyl)-2-((6-(4-(2-(2-(2-(((S)-1-((2S,4R)-4-hydroxy-2-((4-(4-methylthiazol-5-yl)benzyl)carbamoyl)pyrrolidin-1-yl)-3,3-dimethyl-1-oxobutan-2-yl)amino)-2-oxoethoxy)ethoxy)acetyl)piperazin-1-yl)-2-methylpyrimidin-4-yl)amino)thiazole-5-carboxamide] | > 10000 | > 10000 | – | 2240 | – | – | – | –
7 | COc1cc(Nc2c(C#N)cnc3cc(OCCCN4CCN(C)CC4)c(OC)cc23)c(Cl)cc1Cl [Bosutinib, reference compound] | – | – | – | – | > 10000 | 29.6 | – | –
8 | Cc1nc(Nc2ncc(C(=O)Nc3c(C)cccc3Cl)s2)cc(N2CCN(C(=O)CCCCCOCCOCCOCCCCCC(=O)N[C@H](C(=O)N3C[C@H](O)C[C@H]3C(=O)NCc3ccc(-c4scnc4C)cc3)C(C)(C)C)CC2)n1 [SIAIS180147, N-(2-chloro-6-methylphenyl)-2-((6-(4-((S)-3-((2S,4R)-4-hydroxy-2-((4-(4-methylthiazol-5-yl)benzyl)carbamoyl)pyrrolidine-1-carbonyl)-2,2-dimethyl-5-oxo-11,14,17-trioxa-4-azatricosan-23-oyl)piperazin-1-yl)-2-methylpyrimidin-4-yl)amino)thiazole-5-carboxamide] | > 10000 | > 10000 | 14.9 | – | – | – | – | –
9 | Cc1nc(Nc2ncc(C(=O)Nc3c(C)cccc3Cl)s2)cc(N2CCN(C(=O)CCOCCOCCOCCOCCOCCC(=O)N[C@H](C(=O)N3C[C@H](O)C[C@H]3C(=O)NCc3ccc(-c4scnc4C)cc3)C(C)(C)C)CC2)n1 [SIAIS151079, N-(2-chloro-6-methylphenyl)-2-((6-(4-((S)-21-((2S,4R)-4-hydroxy-2-((4-(4-methylthiazol-5-yl)benzyl)carbamoyl)pyrrolidine-1-carbonyl)-22,22-dimethyl-19-oxo-4,7,10,13,16-pentaoxa-20-azatricosanoyl)piperazin-1-yl)-2-methylpyrimidin-4-yl)amino)thiazole-5-carboxamide] | > 10000 | > 10000 | 1610 | – | – | – | – | –
10 | COc1cc(Nc2c(C#N)cnc3cc(OCCCN4CCN(C(=O)CC(=O)Nc5cccc6c5CN(C5CCC(=O)NC5=O)C6=O)CC4)c(OC)cc23)c(Cl)cc1Cl (centres unmarked) [SIAIS164104, 3-(4-(3-((3-cyano-4-((2,4-dichloro-5-methoxyphenyl)amino)-6-methoxyquinolin-7-yl)oxy)propyl)piperazin-1-yl)-N-(2-(2,6-dioxopiperidin-3-yl)-1-oxoisoindolin-4-yl)-3-oxopropanamide] | > 10000 | > 10000 | 811 | – | – | – | – | –
11 | Cc1nc(Nc2ncc(C(=O)Nc3c(C)cccc3Cl)s2)cc(N2CCN(C(=O)COCCOCC(=O)N[C@H](C(=O)N3C[C@H](O)C[C@H]3C(=O)NCc3ccc(-c4scnc4C)cc3)C(C)(C)C)CC2)n1 [SIAIS151076, N-(2-chloro-6-methylphenyl)-2-((6-(4-(2-(2-(2-(((S)-1-((2S,4R)-4-hydroxy-2-((4-(4-methylthiazol-5-yl)benzyl)carbamoyl)pyrrolidin-1-yl)-3,3-dimethyl-1-oxobutan-2-yl)amino)-2-oxoethoxy)ethoxy)acetyl)piperazin-1-yl)-2-methylpyrimidin-4-yl)amino)thiazole-5-carboxamide] | – | – | – | 670 | – | – | > 10000 | > 10000
12 | Cc1nc(Nc2ncc(C(=O)Nc3c(C)cccc3Cl)s2)cc(N2CCN(C(=O)CCOCCOCCOCCC(=O)N[C@H](C(=O)N3C[C@H](O)C[C@H]3C(=O)NCc3ccc(-c4scnc4C)cc3)C(C)(C)C)CC2)n1 [SIAIS151077, N-(2-chloro-6-methylphenyl)-2-((6-(4-((S)-15-((2S,4R)-4-hydroxy-2-((4-(4-methylthiazol-5-yl)benzyl)carbamoyl)pyrrolidine-1-carbonyl)-16,16-dimethyl-13-oxo-4,7,10-trioxa-14-azaheptadecanoyl)piperazin-1-yl)-2-methylpyrimidin-4-yl)amino)thiazole-5-carboxamide] | > 10000 | > 10000 | 3430 | – | – | – | – | –
13 | Cc1nc(Nc2ncc(C(=O)Nc3c(C)cccc3Cl)s2)cc(N2CCN(C(=O)CCCCCCCCCCCCC(=O)N[C@H](C(=O)N3C[C@H](O)C[C@H]3C(=O)NCc3ccc(-c4scnc4C)cc3)C(C)(C)C)CC2)n1 [SIAIS164193, N-(2-chloro-6-methylphenyl)-2-((6-(4-(14-(((S)-1-((2S,4R)-4-hydroxy-2-((4-(4-methylthiazol-5-yl)benzyl)carbamoyl)pyrrolidin-1-yl)-3,3-dimethyl-1-oxobutan-2-yl)amino)-14-oxotetradecanoyl)piperazin-1-yl)-2-methylpyrimidin-4-yl)amino)thiazole-5-carboxamide] | > 10000 | > 10000 | 14.4 | – | – | – | – | –
